# From patent US20240407365A1, “Method for Treating Technical Products” (THOR GMBH, priority 2021, published 2024)
# Test: amount of CMIT remaining in water-based dispersion paint after storage, HPLC
# Type: physicochemical
# Details: paint pH 8.3
# Description: The amounts of 5-chloro-2-methyl-4-isothiazolinone and zinc oxide specified in Table 1 were added to and homogeneously incorporated in aliquots of a commercially available, preservative-free, water-based matt interior dispersion paint (pH: 8.3; binder: ethylene vinyl acetate; pigment volume concentration (PVC): 77%). After 30 to 45 minutes, the sodium pyrithione was then added. The controls used were samples containing chloro-2-methyl-4-isothiazolinone and sodium pyrithione without zinc oxide and samples containing chloro-2-methyl-4-isothiazolinone only. The samples were stored at 21° C. and, after the time intervals specified in Table 1 (4 hours, 24 hours, 72 hours, 168 hours and 336 hours), the amount of chloro-2-methyl-4-isothiazolinone remaining in the paint was determined with the aid of HPLC analyses.
# [1] = NaPy 0 ppm, CMIT 25 ppm, ZnO 0 ppm
# [2] = NaPy 0 ppm, CMIT 50 ppm, ZnO 0 ppm
# [3] = NaPy 0 ppm, CMIT 100 ppm, ZnO 0 ppm
# [4] = NaPy 130 ppm, CMIT 25 ppm, ZnO 0 ppm
# [5] = NaPy 130 ppm, CMIT 25 ppm, ZnO 75 ppm
# [6] = NaPy 130 ppm, CMIT 25 ppm, ZnO 150 ppm
# [7] = NaPy 130 ppm, CMIT 25 ppm, ZnO 225 ppm
# [8] = NaPy 130 ppm, CMIT 25 ppm, ZnO 300 ppm
# [9] = NaPy 130 ppm, CMIT 25 ppm, ZnO 375 ppm
# [10] = NaPy 130 ppm, CMIT 25 ppm, ZnO 450 ppm
# [11] = NaPy 130 ppm, CMIT 25 ppm, ZnO 525 ppm
# [12] = NaPy 130 ppm, CMIT 50 ppm, ZnO 0 ppm
# [13] = NaPy 130 ppm, CMIT 50 ppm, ZnO 75 ppm
# [14] = NaPy 130 ppm, CMIT 50 ppm, ZnO 150 ppm
# [15] = NaPy 130 ppm, CMIT 50 ppm, ZnO 225 ppm
# [16] = NaPy 130 ppm, CMIT 50 ppm, ZnO 300 ppm
# [17] = NaPy 130 ppm, CMIT 50 ppm, ZnO 375 ppm
# [18] = NaPy 130 ppm, CMIT 50 ppm, ZnO 450 ppm
# [19] = NaPy 130 ppm, CMIT 50 ppm, ZnO 525 ppm
# [20] = NaPy 130 ppm, CMIT 100 ppm, ZnO 0 ppm
# [21] = NaPy 130 ppm, CMIT 100 ppm, ZnO 75 ppm
# [22] = NaPy 130 ppm, CMIT 100 ppm, ZnO 150 ppm
# [23] = NaPy 130 ppm, CMIT 100 ppm, ZnO 225 ppm
# [24] = NaPy 130 ppm, CMIT 100 ppm, ZnO 300 ppm
# [25] = NaPy 130 ppm, CMIT 100 ppm, ZnO 375 ppm
# [26] = NaPy 130 ppm, CMIT 100 ppm, ZnO 450 ppm
# [27] = NaPy 130 ppm, CMIT 100 ppm, ZnO 525 ppm
smiles,measurement,setting,value
"Cn1sc(Cl)cc1=O [CIMT, 5-chloro-2-methyl-4-isothiazolinone]",CIMT [ppm] after storage at 21° C. 4 [h],[1],25 ppm
same,CIMT [ppm] after storage at 21° C. 24 h,[1],25 ppm
same,CIMT [ppm] after storage at 21° C. 72 h,[1],24 ppm
same,CIMT [ppm] after storage at 21° C. 168 h,[1],24 ppm
same,CIMT [ppm] after storage at 21° C. 336 h,[1],22 ppm
same,CIMT [ppm] after storage at 21° C. 4 [h],[2],50 ppm
same,CIMT [ppm] after storage at 21° C. 24 h,[2],50 ppm
same,CIMT [ppm] after storage at 21° C. 72 h,[2],49 ppm
same,CIMT [ppm] after storage at 21° C. 168 h,[2],47 ppm
same,CIMT [ppm] after storage at 21° C. 336 h,[2],47 ppm
same,CIMT [ppm] after storage at 21° C. 4 [h],[3],101 ppm
same,CIMT [ppm] after storage at 21° C. 24 h,[3],100 ppm
same,CIMT [ppm] after storage at 21° C. 72 h,[3],101 ppm
same,CIMT [ppm] after storage at 21° C. 168 h,[3],99 ppm
same,CIMT [ppm] after storage at 21° C. 336 h,[3],95 ppm
same,CIMT [ppm] after storage at 21° C. 4 [h],[4],<LOQ (below the limit of determination (<0.5 ppm CMIT))
same,CIMT [ppm] after storage at 21° C. 24 h,[4],<LOQ (below the limit of determination (<0.5 ppm CMIT))
same,CIMT [ppm] after storage at 21° C. 72 h,[4],<LOQ (below the limit of determination (<0.5 ppm CMIT))
same,CIMT [ppm] after storage at 21° C. 168 h,[4],<LOQ (below the limit of determination (<0.5 ppm CMIT))
same,CIMT [ppm] after storage at 21° C. 336 h,[4],<LOQ (below the limit of determination (<0.5 ppm CMIT))
same,CIMT [ppm] after storage at 21° C. 4 [h],[5],13 ppm
same,CIMT [ppm] after storage at 21° C. 24 h,[5],4 ppm
same,CIMT [ppm] after storage at 21° C. 72 h,[5],1 ppm
same,CIMT [ppm] after storage at 21° C. 168 h,[5],<LOQ (below the limit of determination (<0.5 ppm CMIT))
same,CIMT [ppm] after storage at 21° C. 336 h,[5],<LOQ (below the limit of determination (<0.5 ppm CMIT))
same,CIMT [ppm] after storage at 21° C. 4 [h],[6],19 ppm
same,CIMT [ppm] after storage at 21° C. 24 h,[6],11 ppm
same,CIMT [ppm] after storage at 21° C. 72 h,[6],6 ppm
same,CIMT [ppm] after storage at 21° C. 168 h,[6],2 ppm
same,CIMT [ppm] after storage at 21° C. 336 h,[6],<LOQ (below the limit of determination (<0.5 ppm CMIT))
same,CIMT [ppm] after storage at 21° C. 4 [h],[7],23 ppm
same,CIMT [ppm] after storage at 21° C. 24 h,[7],17 ppm
same,CIMT [ppm] after storage at 21° C. 72 h,[7],11 ppm
same,CIMT [ppm] after storage at 21° C. 168 h,[7],7 ppm
same,CIMT [ppm] after storage at 21° C. 336 h,[7],2 ppm
same,CIMT [ppm] after storage at 21° C. 4 [h],[8],24 ppm
same,CIMT [ppm] after storage at 21° C. 24 h,[8],21 ppm
same,CIMT [ppm] after storage at 21° C. 72 h,[8],14 ppm
same,CIMT [ppm] after storage at 21° C. 168 h,[8],12 ppm
same,CIMT [ppm] after storage at 21° C. 336 h,[8],6 ppm
same,CIMT [ppm] after storage at 21° C. 4 [h],[9],25 ppm
same,CIMT [ppm] after storage at 21° C. 24 h,[9],22 ppm
same,CIMT [ppm] after storage at 21° C. 72 h,[9],20 ppm
same,CIMT [ppm] after storage at 21° C. 168 h,[9],15 ppm
same,CIMT [ppm] after storage at 21° C. 336 h,[9],10 ppm
same,CIMT [ppm] after storage at 21° C. 4 [h],[10],26 ppm
same,CIMT [ppm] after storage at 21° C. 24 h,[10],22 ppm
same,CIMT [ppm] after storage at 21° C. 72 h,[10],22 ppm
same,CIMT [ppm] after storage at 21° C. 168 h,[10],19 ppm
same,CIMT [ppm] after storage at 21° C. 336 h,[10],12 ppm
same,CIMT [ppm] after storage at 21° C. 4 [h],[11],24 ppm
same,CIMT [ppm] after storage at 21° C. 24 h,[11],21 ppm
same,CIMT [ppm] after storage at 21° C. 72 h,[11],21 ppm
same,CIMT [ppm] after storage at 21° C. 168 h,[11],18 ppm
same,CIMT [ppm] after storage at 21° C. 336 h,[11],14 ppm
same,CIMT [ppm] after storage at 21° C. 4 [h],[12],3 ppm
same,CIMT [ppm] after storage at 21° C. 24 h,[12],<LOQ (below the limit of determination (<0.5 ppm CMIT))
same,CIMT [ppm] after storage at 21° C. 72 h,[12],<LOQ (below the limit of determination (<0.5 ppm CMIT))
same,CIMT [ppm] after storage at 21° C. 168 h,[12],<LOQ (below the limit of determination (<0.5 ppm CMIT))
same,CIMT [ppm] after storage at 21° C. 336 h,[12],<LOQ (below the limit of determination (<0.5 ppm CMIT))
same,CIMT [ppm] after storage at 21° C. 4 [h],[13],21 ppm
same,CIMT [ppm] after storage at 21° C. 24 h,[13],9 ppm
same,CIMT [ppm] after storage at 21° C. 72 h,[13],2 ppm
same,CIMT [ppm] after storage at 21° C. 168 h,[13],<LOQ (below the limit of determination (<0.5 ppm CMIT))
same,CIMT [ppm] after storage at 21° C. 336 h,[13],<LOQ (below the limit of determination (<0.5 ppm CMIT))
same,CIMT [ppm] after storage at 21° C. 4 [h],[14],31 ppm
same,CIMT [ppm] after storage at 21° C. 24 h,[14],19 ppm
same,CIMT [ppm] after storage at 21° C. 72 h,[14],11 ppm
same,CIMT [ppm] after storage at 21° C. 168 h,[14],8 ppm
same,CIMT [ppm] after storage at 21° C. 336 h,[14],1 ppm
same,CIMT [ppm] after storage at 21° C. 4 [h],[15],38 ppm
same,CIMT [ppm] after storage at 21° C. 24 h,[15],29 ppm
same,CIMT [ppm] after storage at 21° C. 72 h,[15],21 ppm
same,CIMT [ppm] after storage at 21° C. 168 h,[15],15 ppm
same,CIMT [ppm] after storage at 21° C. 336 h,[15],8 ppm
same,CIMT [ppm] after storage at 21° C. 4 [h],[16],47 ppm
same,CIMT [ppm] after storage at 21° C. 24 h,[16],42 ppm
same,CIMT [ppm] after storage at 21° C. 72 h,[16],34 ppm
same,CIMT [ppm] after storage at 21° C. 168 h,[16],24 ppm
same,CIMT [ppm] after storage at 21° C. 336 h,[16],14 ppm
same,CIMT [ppm] after storage at 21° C. 4 [h],[17],49 ppm
same,CIMT [ppm] after storage at 21° C. 24 h,[17],49 ppm
same,CIMT [ppm] after storage at 21° C. 72 h,[17],40 ppm
same,CIMT [ppm] after storage at 21° C. 168 h,[17],30 ppm
same,CIMT [ppm] after storage at 21° C. 336 h,[17],23 ppm
same,CIMT [ppm] after storage at 21° C. 4 [h],[18],50 ppm
same,CIMT [ppm] after storage at 21° C. 24 h,[18],47 ppm
same,CIMT [ppm] after storage at 21° C. 72 h,[18],42 ppm
same,CIMT [ppm] after storage at 21° C. 168 h,[18],35 ppm
same,CIMT [ppm] after storage at 21° C. 336 h,[18],28 ppm
same,CIMT [ppm] after storage at 21° C. 4 [h],[19],51 ppm
same,CIMT [ppm] after storage at 21° C. 24 h,[19],50 ppm
same,CIMT [ppm] after storage at 21° C. 72 h,[19],45 ppm
same,CIMT [ppm] after storage at 21° C. 168 h,[19],38 ppm
same,CIMT [ppm] after storage at 21° C. 336 h,[19],31 ppm
same,CIMT [ppm] after storage at 21° C. 4 [h],[20],8 ppm
same,CIMT [ppm] after storage at 21° C. 24 h,[20],<LOQ (below the limit of determination (<0.5 ppm CMIT))
same,CIMT [ppm] after storage at 21° C. 72 h,[20],<LOQ (below the limit of determination (<0.5 ppm CMIT))
same,CIMT [ppm] after storage at 21° C. 168 h,[20],<LOQ (below the limit of determination (<0.5 ppm CMIT))
same,CIMT [ppm] after storage at 21° C. 336 h,[20],<LOQ (below the limit of determination (<0.5 ppm CMIT))
same,CIMT [ppm] after storage at 21° C. 4 [h],[21],37 ppm
same,CIMT [ppm] after storage at 21° C. 24 h,[21],25 ppm
same,CIMT [ppm] after storage at 21° C. 72 h,[21],13 ppm
same,CIMT [ppm] after storage at 21° C. 168 h,[21],6 ppm
same,CIMT [ppm] after storage at 21° C. 336 h,[21],<LOQ (below the limit of determination (<0.5 ppm CMIT))
same,CIMT [ppm] after storage at 21° C. 4 [h],[22],52 ppm
same,CIMT [ppm] after storage at 21° C. 24 h,[22],39 ppm
same,CIMT [ppm] after storage at 21° C. 72 h,[22],28 ppm
same,CIMT [ppm] after storage at 21° C. 168 h,[22],16 ppm
same,CIMT [ppm] after storage at 21° C. 336 h,[22],5 ppm
same,CIMT [ppm] after storage at 21° C. 4 [h],[23],67 ppm
same,CIMT [ppm] after storage at 21° C. 24 h,[23],56 ppm
same,CIMT [ppm] after storage at 21° C. 72 h,[23],37 ppm
same,CIMT [ppm] after storage at 21° C. 168 h,[23],22 ppm
same,CIMT [ppm] after storage at 21° C. 336 h,[23],14 ppm
same,CIMT [ppm] after storage at 21° C. 4 [h],[24],83 ppm
same,CIMT [ppm] after storage at 21° C. 24 h,[24],76 ppm
same,CIMT [ppm] after storage at 21° C. 72 h,[24],64 ppm
same,CIMT [ppm] after storage at 21° C. 168 h,[24],47 ppm
same,CIMT [ppm] after storage at 21° C. 336 h,[24],28 ppm
same,CIMT [ppm] after storage at 21° C. 4 [h],[25],93 ppm
same,CIMT [ppm] after storage at 21° C. 24 h,[25],89 ppm
same,CIMT [ppm] after storage at 21° C. 72 h,[25],77 ppm
same,CIMT [ppm] after storage at 21° C. 168 h,[25],63 ppm
same,CIMT [ppm] after storage at 21° C. 336 h,[25],44 ppm
same,CIMT [ppm] after storage at 21° C. 4 [h],[26],102 ppm
same,CIMT [ppm] after storage at 21° C. 24 h,[26],96 ppm
same,CIMT [ppm] after storage at 21° C. 72 h,[26],88 ppm
same,CIMT [ppm] after storage at 21° C. 168 h,[26],75 ppm
same,CIMT [ppm] after storage at 21° C. 336 h,[26],61 ppm
same,CIMT [ppm] after storage at 21° C. 4 [h],[27],100 ppm
same,CIMT [ppm] after storage at 21° C. 24 h,[27],101 ppm
same,CIMT [ppm] after storage at 21° C. 72 h,[27],94 ppm
same,CIMT [ppm] after storage at 21° C. 168 h,[27],84 ppm
same,CIMT [ppm] after storage at 21° C. 336 h,[27],72 ppm
